Measured values as given in patent US20150004134A1, “TREATMENT OF CANCER WITH HETEROCYCLIC INHIBITORS OF GLUTAMINASE” (Calithera Biosciences, Inc., priority 2012, published 2015).

What was measured:
[1] = biological target: T1, recombinant form of glutaminase (GAC Delta N2) (Homo sapiens, UniProt O94925); experiment: Modified Recombinant Enzyme Assay - Time Dependence; type: biochemical; conditions: 60 min preincubation
T1 sequence (O94925 137-598 isoform O94925-3 limits assumed): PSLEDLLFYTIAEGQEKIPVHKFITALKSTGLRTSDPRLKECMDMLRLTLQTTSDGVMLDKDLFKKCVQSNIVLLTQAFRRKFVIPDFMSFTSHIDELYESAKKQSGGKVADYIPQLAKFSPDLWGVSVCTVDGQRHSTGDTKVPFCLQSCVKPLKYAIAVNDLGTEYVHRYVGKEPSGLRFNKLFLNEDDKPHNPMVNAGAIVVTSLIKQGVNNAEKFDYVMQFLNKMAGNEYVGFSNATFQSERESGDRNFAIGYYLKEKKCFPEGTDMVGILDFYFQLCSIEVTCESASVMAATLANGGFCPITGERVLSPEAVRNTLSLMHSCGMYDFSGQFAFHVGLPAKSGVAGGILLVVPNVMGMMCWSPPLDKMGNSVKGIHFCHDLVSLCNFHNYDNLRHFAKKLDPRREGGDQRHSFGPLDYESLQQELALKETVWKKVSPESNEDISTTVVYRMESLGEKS
Description: Compounds were assessed for their ability to inhibit the enzymatic activity of a recombinant form of glutaminase using a biochemical assay that couples the production of Glu (liberated by glutaminase) to GDH and measures the increase in fluorescence due to the reduction of NADP+ to NADPH.
3x-enzyme-containing solution was made by diluting recombinant glutaminase and GDH from Proteus species (Sigma Aldrich no. G4387) into glutaminase buffer to create a 6 nM glutaminase plus 18 units/mL GDH solution. […] When time-dependent effects of compound inhibition were tested, enzyme-containing solution was treated with inhibitor-containing solution for the indicated time prior to addition of substrate-containing solution.
IC50 Determination: The initial velocities of each progress curve were calculated using a straight line equation (Y=Yintercept+(slope)*X). Initial velocity values were plotted against compound concentration and fit to a four parameter dose response equation (% activity=Bottom+(Top−Bottom)/(1+10̂((LogIC50−X)*HillSlope))) to calculate an IC50 value.

P493-6 (myc "on") cells = experiment: Cell Proliferation Assay; type: cell-based; conditions: P493-6, 72 h, read-out: Cell prolif P493 72 h IC50, P493 cells, 72 h
Outline: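 P493-6 cells with myc on, 10,000 per well in RPMI/10% FBS, exposed to serially diluted compound (0.5% DMSO final) for 72 h at 37 °C, 5% CO2. Antiproliferative effect read by Cell Titer Glo luminescence or Viacount FACS viability count.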

[2] = biological target: T2, recombinant form of Glutaminase 1 (GAC) (Homo sapiens, UniProt O94925); experiment: Recombinant Enzyme Assay - Time Dependence (60 min preincubation); type: biochemical; conditions: read-out: GAC Delta N2 IC50 60 min preinc
T2 sequence (O94925 137-598 isoform O94925-3 limits assumed): T1 sequence (O94925 137-598 isoform O94925-3 limits assumed)
Outline: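 Enzyme and compound preincubated 60 min at 20° C; reaction started with substrate buffer (50 mM Tris-HCl pH 8.0, 150 mM K2HPO4, 1 mM DTT, 20 mM L-glutamine, 2 mM NAD^+). NADH formation followed at 340 nm in kinetic mode for 15 min at 20° C; slopes (mAU/min) compared with DMSO and control-compound wells.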

[3] = biological target: T2, recombinant form of Glutaminase 1 (GAC); experiment: Recombinant Enzyme Assay (no preincubation); type: biochemical; conditions: read-out: GAC Delta N2 IC50 no preinc;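 further: GDH-coupled GAC activity read as absorbance at 340 nm in kinetic mode over 15 min at 20 °C, slopes compared with a DMSO-only control, lower slope means inhibition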
Description: Compounds were assessed for their ability to inhibit the enzymatic activity of a recombinant form of Glutaminase 1 (GAC) using a biochemical assay that couples the production of glutamate (liberated by GAC) to glutamate dehydrogenase (GDH) and measuring the change in absorbance for the reduction of NAD^+ to NADH. […] Enzymatic reaction was started with the addition of 50 μL of enzyme solution (50 mM Tris-HCl pH 8.0, 0.2 mM EDTA, 150 mM K2HPO4, 0.1 mg/ml BSA, 1 mM DTT, 10 ppm antifoam, 4 units/ml GDH, 4 mM adenosine diphosphate, and 4 nM GAC) and read in a Molecular Devices M5 plate reader at 20° C. The plate reader was configured to read absorbance (λ=340 nm) in kinetic mode for 15 minutes. Data was recorded as milli-absorbance units per minute and slopes were compared to a control compound and a DMSO-only control on the same plate. Compounds with slopes less than the DMSO control were considered inhibitors and plate variability was assessed using the control compound.

Caco-2 cell monolayers = experiment: Caco-2 Permeability Assay; type: in vitro ADME; conditions: for Permeability Classification: absorption potential
Description: Caco-2 cells are commonly used in a confluent monolayer on a cell culture insert filter. When cultured in this format and under specific conditions, the cells become differentiated and polarized such that their phenotype, morphologically and functionally resembles the enterocytes lining the small intestine. The cell monolayer provides a physical and biochemical barrier to the passage of small molecules, and is widely used across the pharmaceutical industry as an in vitro model of the human small intestinal mucosa to predict the absorption of orally administered drugs (Hidalgo et al., Gastroenterology, 1989; Artursson, J. Pharm. Sci., 1990). The correlation between the in vitro apparent permeability (P ? app) across Caco-2 monolayers and the in vivo absorption is well established (Artursson et al., Biochem. Biophys. Res. Comm., 1991).
The present assay was used to determine the bidirectional permeability of the compounds of the invention through Caco-2 cell monolayers. Caco-2 cells were grown in confluent monolayers where the media of both the apical (A) and basolateral (B) sides were at pH 7.4. Compounds were dosed at 1 μM in the presence of 200 μM Lucifer Yellow, on the apical side (A→B) or the basolateral side (B→A) for assessment, in duplicate.
The absorption potential of compounds were classified as either Low (P-app <1×10^−6 CM/S) or High (P-app >1×10^−6 CM/S).

IC50 [1]	SMILES	IC50 (P493-6 (myc "on") cells)	IC50 [2]	IC50 [3]	Significant Efflux (Caco-2 cell monolayers)	Permeability Classification (Caco-2 cell monolayers)
0.013 µM	O=C(Cc1cc(O)cc(OC(F)(F)F)c1)Nc1ccc(CCCCc2nnc(NC(=O)Cc3ccccn3)s2)nn1 [Compound 730]					
	O=C(Cc1ccccc1)Nc1nnc(CCCCc2ccc(NC(=O)C(O)c3ccccc3)nn2)s1 (stereo not shown) [Compound 364]	0.26 µM	0.03 µM	0.15 µM		
	CC(C(=O)Nc1nnc(CCCCc2ccc(NC(=O)Cc3ccccc3)nn2)s1)c1ccccc1 (stereo not shown) [Compound 616]		0.008 µM		Yes (efflux ratios being significant when greater than or equal to 3 when the Papp (B→A) was greater than or equal to 1×10^−6 cm/s)	High (High (P-app >1×10^−6 CM/S))
	CCOC(=O)NCc1cccc(CC(=O)Nc2ccc(CCCCc3nnc(NC(=O)Cc4ccccc4)s3)nn2)c1 [Compound 384]	0.005 µM	0.003 µM	0.081 µM		
	CC(C)(C)OC(=O)NCc1cccc(CC(=O)Nc2nnc(CCCCc3ccc(NC(=O)Cc4ccccc4)nn3)s2)c1 [Compound 339]	0.009 µM			Yes (efflux ratios being significant when greater than or equal to 3 when the Papp (B→A) was greater than or equal to 1×10^−6 cm/s)	High (High (P-app >1×10^−6 CM/S))
0.19 µM	O=C(Cc1ccccn1)Nc1nnc(CCCCc2ccc(NC(=O)C(O)c3ccccc3)nn2)s1 (stereo not shown) [Compound 715]					
	CCOC(=O)NCc1cccc(CC(=O)Nc2nnc(CCCCc3ccc(NC(=O)Cc4ccccc4)nn3)s2)c1 [Compound 382]	0.007 µM	0.003 µM	0.099 µM		
	NCc1cccc(CC(=O)Nc2nnc(CCCCc3nnc(NC(=O)Cc4cccc(CN)c4)s3)s2)c1 [Compound 325]	0.03 µM	0.17 µM	0.66 µM		
0.14 µM	CC(C)(C)OC(=O)Nc1cccc(CC(=O)Nc2nnc(CCCCc3ccc(NC(=O)Cc4cccc(OC(F)(F)F)c4)nn3)s2)n1 [Compound 724]					
	O=C(Cc1cccc(OC(F)(F)F)c1)Nc1ccc(CCCCc2nnc(NC(=O)[C@H](O)c3ccccc3)s2)nn1 [Compound 705]				Yes (efflux ratios being significant when greater than or equal to 3 when the Papp (B→A) was greater than or equal to 1×10^−6 cm/s)	High (High (P-app >1×10^−6 CM/S))
0.02 µM	O=C(Cc1cc(OC(F)(F)F)ccc1F)Nc1ccc(CCCCc2nnc(NC(=O)Cc3ccccn3)s2)nn1 [Compound 720]					
	O=C(Cc1cccc(OC(F)(F)F)c1)Nc1ccc(CCCCc2nnc(NC(=O)Cc3cccc(F)c3)s2)nn1 [Compound 679]				No	High (High (P-app >1×10^−6 CM/S))
0.042 µM	O=C(Cc1ccc(O)c(OC(F)(F)F)c1)Nc1ccc(CCCCc2nnc(NC(=O)Cc3ccccn3)s2)nn1 [Compound 723]					
0.034 µM	COc1ccc(OC(F)(F)F)cc1CC(=O)Nc1ccc(CCCCc2nnc(NC(=O)Cc3ccccn3)s2)nn1 [Compound 717]					
	O=C(Cc1ccccc1)Nc1ccc(CCCCc2nnc(NC(=O)Cc3ccccc3)s2)nn1 [Compound 295]	0.039 µM	0.01 µM	0.057 µM	Yes (efflux ratios being significant when greater than or equal to 3 when the Papp (B→A) was greater than or equal to 1×10^−6 cm/s)	High (High (P-app >1×10^−6 CM/S))
0.012 µM	Cc1cccc(CC(=O)Nc2nnc(CCCCc3ccc(NC(=O)Cc4cccc(OC(F)(F)F)c4)nn3)s2)n1 [Compound 728]					

IC50 [1]	SMILES	IC50 (P493-6 (myc "on") cells)	IC50 [2]	IC50 [3]	Significant Efflux (Caco-2 cell monolayers)	Permeability Classification (Caco-2 cell monolayers)
	CC(C)(C)OC(=O)NCc1cccc(CC(=O)Nc2nnc(CCCCc3nnc(NC(=O)Cc4ccccc4)s3)s2)c1 [Compound 375]	0.041 µM	0.005 µM	0.38 µM		
	CC(C(=O)Nc1ccc(CCCCc2nnc(NC(=O)Cc3cccc(CNC(=O)OC(C)(C)C)c3)s2)nn1)c1ccccc1 (stereo not shown) [Compound 436]				Yes (efflux ratios being significant when greater than or equal to 3 when the Papp (B→A) was greater than or equal to 1×10^−6 cm/s)	High (High (P-app >1×10^−6 CM/S))
	O=C(Cc1ccccc1Cl)Nc1ccc(CCCCc2nnc(NC(=O)Cc3ccccc3F)s2)nn1 [Compound 533]				Yes (efflux ratios being significant when greater than or equal to 3 when the Papp (B→A) was greater than or equal to 1×10^−6 cm/s)	High (High (P-app >1×10^−6 CM/S))
	O=C(Cc1cccc(OC(F)(F)F)c1)Nc1ccc(CCCCc2nnc(NC(=O)C(O)c3cccc(Cl)c3)s2)nn1 (stereo not shown) [Compound 447]		0.005 µM		Yes (efflux ratios being significant when greater than or equal to 3 when the Papp (B→A) was greater than or equal to 1×10^−6 cm/s)	High (High (P-app >1×10^−6 CM/S))
0.016 µM	COc1cc(CC(=O)Nc2ccc(CCCCc3nnc(NC(=O)Cc4ccccn4)s3)nn2)cc(OC(F)(F)F)c1 [Compound 729]					
	O=C(Cc1cccc(OC(F)(F)F)c1)Nc1ccc(CCCCc2nnc(NC(=O)[C@@H](O)c3ccccc3)s2)nn1 [Compound 703]				Yes (efflux ratios being significant when greater than or equal to 3 when the Papp (B→A) was greater than or equal to 1×10^−6 cm/s)	High (High (P-app >1×10^−6 CM/S))
	O=C(Cc1cccc(OC(F)(F)F)c1)Nc1ccc(CCCCc2nnc(NC(=O)Cc3cccc(OC(F)(F)F)c3)s2)nn1 [Compound 660]		0.025 µM		Yes (efflux ratios being significant when greater than or equal to 3 when the Papp (B→A) was greater than or equal to 1×10^−6 cm/s)	Low (Low (P-app <1×10^−6 CM/S))
	O=C(Cc1ccccc1)Nc1ccc(CCCCc2nnc(NC(=O)Cc3ccccn3)s2)nn1 [Compound 354]	0.047 µM			Yes (efflux ratios being significant when greater than or equal to 3 when the Papp (B→A) was greater than or equal to 1×10^−6 cm/s)	High (High (P-app >1×10^−6 CM/S))
0.024 µM	COc1ccc(CC(=O)Nc2ccc(CCCCc3nnc(NC(=O)Cc4ccccn4)s3)nn2)cc1OC(F)(F)F [Compound 722]					
	O=C(Cc1cccc(OC(F)(F)F)c1)Nc1ccc(CCCCc2nnc(NC(=O)Cc3ccccc3)s2)nn1 [Compound 585]		0.006 µM		Yes (efflux ratios being significant when greater than or equal to 3 when the Papp (B→A) was greater than or equal to 1×10^−6 cm/s)	High (High (P-app >1×10^−6 CM/S))
	O=C(Cc1ccccc1)Nc1nnc(CCCCc2ccc(NC(=O)C(O)c3cccc(Cl)c3)nn2)s1 (stereo not shown) [Compound 365]	0.089 µM	0.009 µM	0.092 µM		
	NCc1cccc(CC(=O)Nc2ccc(CCCCc3nnc(NC(=O)Cc4ccccc4)s3)nn2)c1 [Compound 368]	0.017 µM	0.009 µM	0.11 µM		
	O=C(Cc1ccccc1)Nc1ccc(CCCCc2nnc(NC(=O)C(O)c3cccc(Cl)c3)s2)nn1 (stereo not shown) [Compound 318]	0.017 µM	0.006 µM	0.18 µM	Yes (efflux ratios being significant when greater than or equal to 3 when the Papp (B→A) was greater than or equal to 1×10^−6 cm/s)	High (High (P-app >1×10^−6 CM/S))
	O=C(Cc1cccc(OC(F)(F)F)c1)Nc1ccc(CCCCc2nnc(NC(=O)Cc3ccccn3)s2)nn1 [Compound 670]				Yes (efflux ratios being significant when greater than or equal to 3 when the Papp (B→A) was greater than or equal to 1×10^−6 cm/s)	High (High (P-app >1×10^−6 CM/S))
	O=C(Nc1nnc(CCCCc2nnc(NC(=O)C(CO)c3ccccc3)s2)s1)C(CO)c1ccccc1 (stereo not shown) [Compound 36, N,N′-[5,5′-(butane-1,4-diyl)-bis(1,3,4-thiadiazole-5,2-diyl)]-bis(3-hydroxy-2-phenylpropanamide)]	0.16 µM	0.04 µM	0.22 µM		
